Data on 9 compounds can be found in paper PMC12621202, “RTx-303, an Orally Bioavailable Polθ Polymerase Inhibitor That Potentiates PARP Inhibitors in BRCA Mutant Tumors” (Journal of Medicinal Chemistry, 2025).

On the set-up of data set [1]: method as in Fried 2024. Conditions: Figure 2A, matrix not printed there (liver microsomes); ref Fried 2024; cited from earlier work. (Microsomes from liver hold many membrane-bound enzymes, among them those of drug oxidation.)
For data set [2], the system named is Polθ-pol. More on the design: method as in Zatreanu 2021, Stockley 2022, Bubenik 2022, Fried 2024. As to conditions: Figures 1 and 2A; ref Zatreanu 2021, Stockley 2022, Bubenik 2022, Fried 2024; read-out: IC50 (Polθ-pol) of representative / previous Polθ-pol inhibitors; cited from earlier work.
The nature of data set [3]: Plasma protein binding (species not given). In kind it is in vitro ADME. An excerpt:
3 Dimethylamine Side-Chain Increases Oral Bioavailability | column: Plasma protein binding (%)

In data set [4] the test system is BRCA2^+/+ HCT116. In words: Clonogenic (colony) survival assay. Format: cell-based. As to conditions: Homo sapiens. Here is the method:
(§1) Colony survival assays were performed on 24-well plates. 800 cells/well of HCT, DLD1- BRCA2 −/–, PALB2 −/–, MEF BRCA1 […], PEO1, SNU-601, SKOV3- BRCA2 −/–, OVCAR8 cells and 200 cells/well of HCT, DLD1, MEF, SKOV3 wildtype cells were plated. For MDA pair, 500 cells/well of MDA436 and 100 cells of MDA231 were plated. Cells were treated with the compound 24 h after plating and the medium was replaced every two or 3 days until the colonies were ready for staining. Colonies were typically ready for staining in 10–12 days. For staining: Medium was removed from plates, and cells were rinsed with PBS. Fixation was carried out with Water:Ethanol:Acetic acid (5:4:1) for 30 min followed by staining of colonies with 0.5% crystal violet in Water:Ethanol (3:2) for 2 h at room temperature. The plates were rinsed with water and left for drying overnight at room temperature. Colonies were then counted manually, and response curves are shown as mean colony formation ± SEM. IC50 was calculated with GraphPad Prism using nonlinear regression analysis, inhibitor vs response (variable slope) equation.

Data set [5] addresses T1, recombinant human Polθ-pol (Homo sapiens, UniProt O75417).
T1 construct: purified recombinant human Polθ-pol (comprising amino acid residues 1792–2590); made in house
T1 sequence (O75417 1792-2590): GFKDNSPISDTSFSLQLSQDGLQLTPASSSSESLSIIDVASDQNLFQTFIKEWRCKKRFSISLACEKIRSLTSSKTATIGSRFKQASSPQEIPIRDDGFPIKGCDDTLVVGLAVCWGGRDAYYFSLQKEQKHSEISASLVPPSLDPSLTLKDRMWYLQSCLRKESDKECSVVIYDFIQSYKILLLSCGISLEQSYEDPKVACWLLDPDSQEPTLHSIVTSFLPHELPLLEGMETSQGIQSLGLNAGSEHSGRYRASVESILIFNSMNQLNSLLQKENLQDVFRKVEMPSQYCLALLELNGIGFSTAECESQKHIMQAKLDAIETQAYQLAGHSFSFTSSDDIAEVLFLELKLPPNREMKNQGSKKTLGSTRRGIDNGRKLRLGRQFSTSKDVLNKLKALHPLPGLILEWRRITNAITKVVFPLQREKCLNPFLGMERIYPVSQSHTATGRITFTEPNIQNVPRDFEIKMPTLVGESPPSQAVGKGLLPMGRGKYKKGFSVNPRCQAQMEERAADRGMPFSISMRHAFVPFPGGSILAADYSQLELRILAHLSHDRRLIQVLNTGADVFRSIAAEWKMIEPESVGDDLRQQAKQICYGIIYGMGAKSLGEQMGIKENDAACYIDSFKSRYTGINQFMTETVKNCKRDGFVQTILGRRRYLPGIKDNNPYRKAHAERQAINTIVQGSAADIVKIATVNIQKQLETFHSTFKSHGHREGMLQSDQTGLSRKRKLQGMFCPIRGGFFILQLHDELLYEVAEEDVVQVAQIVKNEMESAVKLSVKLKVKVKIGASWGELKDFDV
Kind of data set: Fluorescent-based IC50 DNA synthesis assay. Format: biochemical. As to conditions: n=3. Here is the method: The biochemical Polθ-pol IC50 assay was developed in a prior report. Briefly, 60 nM of the preannealed primer-template containing a 5′ Cy5 fluorophore-conjugated template strand (RP486-Cy5), a downstream complementary oligo conjugated with a 3′ Iowa BlackReg Dark quencher (RP343BHQRQ) and a primer strand (RP469D) was mixed with 50 μM 2’-deoxyribonucleoside triphosphates (dNTPs), 0.1 mg/mL bovine serum albumin (BSA), 0.01% NP-40, 10% glycerol, 1 mM dithiothreitol (DTT), 10 mM MgCl2, 25 mM TrisHCl pH 7.8 in the presence of 2.5% DMSO with or without various concentrations (7-point dilution series) of Polθ-pol small-molecule inhibitors at 37 °C in a volume of 40 μL. The reactions were initiated by the addition of 5 nM of purified recombinant human Polθ-pol (comprising amino acid residues 1792–2590). The reactions were terminated by the addition of 20 mM EDTA after 18 min, and the Cy5 fluorescence intensity was measured using a CLARIOstar (BMG Labtech) plate reader. Reactions were performed in triplicate and the % inhibition at each concentration of the respective compound was based on the mean.

Data set [6] is described as follows: LogP. In kind it is physicochemical. Conditions: method not described. An excerpt: 1 Dimethyl and Monomethyl Side-Chains Improve Metabolic Stability and Cellular Potency | column: LogP
The nature of data set [7]: Liver microsome stability. Format: in vitro ADME. Here is the method: Liver microsome membranes stability assay. Assays were conducted in 96-well (1 mL) polypropylene plates. In duplicate, test compounds (1 μM) were incubated in 0.5 mL of 100 mM potassium phosphate buffer (pH 7.4) with 0.5 mg/mL pooled liver microsomes from the test species (Gibco; mouse, CD1, male, MSMCPL; rat, Sprague-Dawley, male, RTMCPL; dog, Beagle, male, DGMCPL; human, mixed gender, HMMCPL), 2 mM tetrasodium NADPH and 3 mM MgCl2 for 60 min in a Labnet Vortemp incubator at 37 °C with gentle shaking. At five time points, […] of reaction mixtures were transferred to a 96-shallow-well stop plate on ice containing […] acetonitrile with 0.05 mM propafenone (internal standard). […] Verapamil was the positive reference compound (typical T1/2 = 3 min). Standard curves for test compounds were generated using 5 concentrations in duplicate. Stop plates were centrifuged at 2270 × g for 10 min and […] of the supernatants were transferred to a Waters Acquity UPLC […] 96-well sample plate, sealed with a cap mat and analyzed by UPLC/MS as described. GraphPad Prism v 5.04 was used for nonlinear fitting of time course data to generate T1/2 (min) and in vitro Clint (μL/min/mg) values.

Data set [8] deals with BRCA2^-/- HCT116. Kind of data set: Clonogenic (colony) survival assay. Conditions: Homo sapiens. In kind it is cell-based, human. Here is the method: as §1
The nature of data set [9]: Pharmacokinetics in CD-1 mice. In kind it is in vivo. Conditions: for bioavailability / Cmax / Tmax / AUC(0-t) / half-life: male, mouse, plasma; for AUC(0-t): read-out: AUClast (PO); for half-life: read-out: T1/2 (PO) (converted). Here is the method: For the pharmacokinetics study, CD-1 male mice (6–8 weeks) were dosed by IV or PO at the indicated concentrations of the indicated compounds dissolved in 5% DMSO, 5% ethanol, 20% TPGS, 30% PEG400, 40% water. Plasma samples were collected at the indicated time points and the indicated compound levels were determined by using standard protocols with a calibration curve and LC/MS. The pharmacokinetic studies was carried out by Pharmaron.

A short description of data set [10]: Mouse plasma protein binding. Format: in vitro ADME. An excerpt: 4 In Vitro ADME and Potency of Chiral Derivatives | column: Mouse plasma protein binding (% free)
Setting [11] is: HCT-116, read-out: IC50 BRCA2^+/+ HCT116 (μM).
Setting [12] is: male, CD1, pH 7.4, mouse liver microsomes, read-out: T1/2 mouse liver microsomes.
Setting [13] is: HCT-116, read-out: IC50 BRCA2^-/- HCT116 (μM).
[14] abbreviates: both sexes, pH 7.4, human liver microsomes, read-out: Clint (uL/min/ mg) human.
Where [15] appears, read: both sexes, pH 7.4, human liver microsomes, read-out: T1/2 human liver microsomes.
Where [16] appears, read: male, CD1, pH 7.4, mouse liver microsomes, read-out: Clint (uL/min /mg) mouse.
Where [17] appears, read: HCT-116, clonogenic survival, two experiments in triplicate, read-out: IC50(nM) HCT116 BRCA2 +/+.
[18] abbreviates: HCT-116, clonogenic survival, two experiments in triplicate, read-out: IC50(nM) HCT116 BRCA2 –/–.

pIC50: −log10 of the molar value. Where two headings read alike, the source gives them in different places.

In the case of `CN(C(=O)Oc1c(Cl)cc(Cl)c2cccnc12)c1ccccc1` [MC2800003], the “t1/2 of previous Polθi” value in data set [1] is recorded as less than 2 min. The pIC50 in [2] is 6.80.
Broadly, the fraction unbound is free concentration divided by total concentration. A low value points to little free substance. The term logP denotes the decadic logarithm of the partition coefficient of the neutral form, usually between octanol and water. Higher therefore signals a more lipophilic compound. For orientation: Cmax means the maximum level reached in the sampled fluid or tissue. What is called Tmax is the time from dosing to the highest level. As for `CNCC(O)CN1CCN(c2cc(C(F)(F)F)cc(C(F)(F)F)c2OC(=O)N(C)c2ccc(F)cc2)C1=O` (centres unmarked) [RTx-290, 2-(3-(2-Hydroxy-3-(methylamino)propyl)-2-oxoimidazolidin-1-yl)-4,6-bis(trifluoromethyl)phenyl (4-fluorophenyl)(methyl)carbamate], in [3], the fraction unbound was 0.064. Moreover, the IC50 in data set [4] (setting [11]) stood at 8.4 µM. Moreover, in data set [5], the IC50 is 5.1 nM. In data set [6], this compound registered a logP of 3.3. Moreover, the half-life at 1 μM in data set [7] (setting [12]) worked out at 56.9 min. Moreover, the IC50 in data set [8] (setting [13]) turned out to be 0.11 µM. Besides, the bioavailability in data set [9] (10 mg/kg IV, 10 mg/kg PO (n=3)) turned out to be 53.3%. In [9] (10 mg/kg PO (n=3)), the Cmax was 436 ng/mL, the Tmax worked out at 40.2 min, the AUC(0-t) worked out at 2050 ng·h/mL and the half-life was 194 min.
On to `CN1CCN(c2cc(C(F)(F)F)cc(C(F)(F)F)c2OC(=O)N(C)c2ccc(F)cc2)C1=O` [RTx-152], for which the “t1/2 of previous Polθi” value in data set [1] is given as less than 2 min. Further, the pIC50 in data set [2] was 8.21.
In the case of `[2H]C([2H])([2H])N(C(=O)Oc1c(N2CCN(C[C@@H](O)CNC)C2=O)cc(C(F)(F)F)cc1C(F)(F)F)c1ccc(F)cc1` [RTx-314], the IC50 in [5] was 6.6 nM. The results for the microsomal CLint at 1 μM in data set [7] (setting [14]) and in data set [7] (setting [16]) were less than 23 µL/min/mg and 26.7 µL/min/mg, respectively. Moreover, the half-life at 1 μM in [7] (setting [15]) was greater than 60 min; in [7] (setting [12]) it was greater than 50 min. For the same compound, the “Mouse plasma protein binding (% free)” value in data set [10] turned out to be 3.1 % free.
For `Cc1cccc(N(C)C(=O)[C@@H]2[C@H](O)CCN2c2nc(C)cc(C(F)(F)F)c2C#N)c1` [ART558, reference compound], the IC50 is greater than 1.28 µM in [4] (setting [17]) and 1.04 µM in data set [8] (setting [18]). The pIC50 in data set [2] is 8.10.
In the case of `Nc1ccc(C#CCN(C(=O)Cc2ncc(C(F)(F)F)cc2C(F)(F)F)c2ccc(F)cc2)nn1` [RP-6685, reference compound], the figures for the IC50 in [4] (setting [17]) and in data set [8] (setting [18]) were greater than 1.28 µM and 0.403 µM, respectively. Besides, in [2], the pIC50 was 8.24.
As to `CN(C)CC(O)CN1CCN(c2cc(C(F)(F)F)cc(C(F)(F)F)c2OC(=O)N(C)c2ccc(F)cc2)C1=O` (centres unmarked) [RTx-182, 2-{3-[3-(Dimethylamino)-2-hydroxypropyl]-2-oxoimidazolidin-1-yl}-4,6-bis(trifluoromethyl)phenyl N-(4-fluorophenyl)-N-methylcarbamate], the fraction unbound in [3] was 0.133. The IC50 in data set [4] (setting [11]) turned out to be 5.4 µM. In data set [5], the IC50 was 6.7 nM. In addition, the logP in [6] turned out to be 3.7. For the same compound, in data set [7] (setting [12]), the half-life at 1 μM stood at 7.9 min. In data set [8] (setting [13]), the IC50 came to 0.86 µM. Moreover, the bioavailability in data set [9] (5 mg/kg IV, 15 mg/kg PO (n=3)) amounted to 93%. Further, in data set [9] (15 mg/kg PO (n=3)), the Cmax was 512 ng/mL, the Tmax was 79.8 min, the AUC(0-t) was 4070 ng·h/mL and the half-life is 142 min.
For the compound `[2H]C([2H])([2H])N(C(=O)Oc1c(N2CCN(C[C@@H](O)CN(C)C)C2=O)cc(C(F)(F)F)cc1C(F)(F)F)c1ccc(F)cc1` [RTx-302, 2-{3-[(2S)-3-(Dimethylamino)-2-hydroxypropyl]-2-oxoimidazolidin-1-yl}-4,6-bis(trifluoromethyl)phenyl N-(4-fluorophenyl)-N-(methyl-d3)-carbamate], the IC50 in data set [5] turned out to be 7.5 nM. Further, in data set [7] (setting [14]), the microsomal CLint at 1 μM was 114 µL/min/mg. Further, the half-life at 1 μM in data set [7] (setting [15]) was determined as 12.5 min. In addition, in [7] (setting [16]), the microsomal CLint at 1 μM was 209 µL/min/mg. Also, the half-life at 1 μM in data set [7] (setting [12]) stood at 6.9 min. In addition, the “Mouse plasma protein binding (% free)” value in [10] came to 4.0 % free. In addition, the bioavailability in data set [9] (15 mg/kg IV, 50 mg/kg PO (n=3)) was found to be 107%. For the same compound, in data set [9] (50 mg/kg PO (n=3)), the peak level (Cmax) was 2170 ng/mL, the time to peak (Tmax) came to 78 min, the AUC(0-t) came to 24200 ng·h/mL and the half-life is 120 min. Besides, the “Avg. free unbound exposure” value in [9] (parent compound, 50 mg/kg PO (n=3)) is 71 nM/h.
For the compound `Cc1cc(C(F)(F)F)cc(N2C(=O)[C@@H](O)[C@@H](O)[C@H]2C(=O)N(C)c2ccc(F)c(Cl)c2)n1` [ART812, reference compound], the figures for the IC50 in data set [4] (setting [17]) and in data set [8] (setting [18]) were greater than 1.28 µM and 0.454 µM, respectively. Also, in [2], the pIC50 was 8.12.
